“Also recorded” adds a separate entry of the source.
Assays:
[1] = test system: ΔlasRrhlR strain of P. aeruginosa; assay: Pyocyanin production in mutant lacking LasR and RhlR; type: cell-based; settings: treated vs DMSO
Description: (§1) Methods. The oxidized form of pyocyanin imparts a green color to P. aeruginosa cultures, making the production of pyocyanin convenient to monitor by UV/Vis absorbance. Overnight P. aeruginosa cultures were subcultured into 5 mL fresh medium at 1:1000 dilution. Synthetic compounds were assayed at 100 μM for end point assays and at concentrations ranging from 200 nM to 200 μM for titrations following 17 hr of aerobic growth with shaking at 37° C. Cells were separated from culture fluids via centrifugation at 13,000 rpm for 15 min. Culture fluids were passed through 0.22 μm syringe driven filters (Millipore). Cell-free culture fluids were analyzed for pyocyanin using wavelength scans on a Beckman Coulter DU-800 spectrophotometer from 200 nm to 800 nm 695 nm was chosen for graphical representation. Titration data were fit with a variable-slope sigmoidal dose-response curve using GraphPad Prism to determine the IC50 values.
The compounds were designed to be AHL analogs that bind and antagonize LasR and/or RhlR. If either receptor were the target, a ΔlasRrhlR strain of P. aeruginosa would not be expected to have a further reduction of pyocyanin when treated with an inhibitor.

[2] = test system: wild-type P. aeruginosa PA14; assay: microbe, parasite or virus in culture; type: cell-based; settings: for Efficacy (%): Table 3, reduction of pyocyanin vs WT P. aeruginosa PA14: 0% = WT level, 100% = background medium; for inhibition of pyocyanin production (in words): wild-type P. aeruginosa PA14, end point assays at 100 μM
Description: as §1
The compounds of the first library were assayed in wild-type (WT) P. aeruginosa PA14. Pyocyanin was used as a read-out for quorum sensing activity based on its absorbance at 695 nm. The efficacy of the compounds at reducing pyocyanin levels was calculated with respect to WT levels of pyocyanin, where WT levels of pyocyanin would lead to a 0% efficacy, and an absorbance equal to the background medium would lead to a 100% efficacy. Agonists that increase pyocyanin production have negative efficacy values.

[3] = test system: wild-type P. aeruginosa PA14; assay: Microarray gene expression analysis, wild-type strain; type: cell-based; settings: WT P. aeruginosa PA14, 100 μM
Description: Methods. Overnight P. aeruginosa PA14 cultures were back-diluted 1:1000 into 5 mL of fresh LB. 100 μM mBTL, or an equivalent amount of DMSO, was added to cultures which were grown aerobically with shaking at 37° C. for 17 hr. 9 ODs of cells were harvested for each treatment. Lysozyme (1 mg/mL in TE buffer) (Sigma) was added for 10 min at room temperature. Total RNA was prepared using the RNeasy Midi Kit (Qiagen). RNA was treated with RNase-Free DNaseI (Ambion) for 1 hr at 37° C., inactivated using DNaseI Inactivation Reagent Resin (Ambion), and re-purified using the RNeasy Mini Kit. […] The library was purified using the PCR Purification kit (Qiagen) and assessed for Cy3 and Cy5 incorporation using a Nanodrop ND-1000 Spectrophotometer (Nanodrop Technologies). […] Microarrays were scanned using an Agilent G2505C scanner and analyzed using Agilent Feature Extract software version 9.5. Resulting microarray intensity data were submitted to the PUMA Database (http://puma.princeton.edu) for archiving and analyzed using Matlab R2013a.
Overnight P. aeruginosa PA14 cultures were back-diluted 1:1000 into 5 mL of fresh LB. […] The library was purified using the PCR Purification kit (Qiagen) and assessed for Cy3 and Cy5 incorporation using a Nanodrop ND-1000 Spectrophotometer (Nanodrop Technologies). […]

RhlR = molecular target: T1, RhlR (Pseudomonas aeruginosa, UniProt P54292); assay: RhlR-GFP assay (rhlA-gfp reporter in recombinant E. coli); type: cell-based, P. aeruginosa
T1 construct: expressed in transfected cells; host or cells: E. coli BL21-Gold (DE3) carrying pET23b-rhlR
T1 sequence (P54292 whole entry): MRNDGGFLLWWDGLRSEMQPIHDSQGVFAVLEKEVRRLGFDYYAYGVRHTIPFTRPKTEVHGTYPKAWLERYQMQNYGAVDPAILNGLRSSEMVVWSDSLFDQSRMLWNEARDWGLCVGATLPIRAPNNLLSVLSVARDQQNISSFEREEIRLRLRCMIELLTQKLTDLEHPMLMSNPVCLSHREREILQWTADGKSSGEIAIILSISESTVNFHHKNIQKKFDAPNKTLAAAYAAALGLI
Description: (§2) Methods. The LasR-GFP assays were performed in E. coli strain BL21 DE3 Gold (Agilent) carrying pET23b (Novagen) containing lasR (maintained with 100 μg/mL ampicillin) and carrying plasmid pEVS141 (31) containing the rsaL promoter driving expression of gfp (maintained with […] of kanamycin.) The RhlR-GFP assays were performed in E. coli strain BL21 DE3 Gold (Agilent) carrying pET23b (Novagen) containing rhlR (maintained with 100 μg/mL ampicillin) and carrying plasmid pEVS141 containing the rhlA promoter driving expression of gfp (maintained with 50 μg/mL of kanamycin.) These E. coli strains were grown overnight and subcultured into fresh medium with appropriate antibiotics at a 1:100 dilution and grown shaking for 8 hr at 37° C. for the LasR-GFP strain and 12 hr for the RhlR-GFP construct. 50 nM 3OC12-HSL or 20 μM C4-HSL was added to the LasR-GFP and RhlR-GFP preparations, respectively. Compounds were tested at 1 mM for antagonism and at 100 nM or 20 μM for agonism. These concentrations were chosen for agonism studies to match the concentrations of autoinducers used in the experiments. For antagonism studies, the EC95 concentration was used for each receptor. GFP was measured on an Envision plate reader.
(§3) The LasR-GFP assays were performed in E. coli strain BL21 DE3 Gold (Agilent) carrying pET23b (Novagen) containing lasR (maintained with 100 μg/mL ampicillin) and carrying plasmid pEVS141 (31) containing the rsaL promoter driving expression of gfp (maintained with 50 μg/mL of kanamycin.) The RhlR-GFP assays were performed in E. coli strain BL21 DE3 Gold (Agilent) carrying pET23b (Novagen) containing rhlR (maintained with 100 μg/mL ampicillin) and carrying plasmid pEVS141 (31) containing the rhlA promoter driving expression of gfp (maintained with 50 μg/mL of kanamycin.) These E. coli strains were grown overnight and subcultured into fresh medium with appropriate antibiotics at a 1:100 dilution and grown shaking for 8 hr at 37° C. for the LasR-GFP strain and 12 hr for the RhlR-GFP construct. 50 nM 3OC12-HSL or 20 μM C4-HSL was added to the LasR-GFP and RhlR-GFP preparations, respectively. Compounds were tested at 1 mM for antagonism and at 100 nM or 20 μM for agonism. These concentrations were chosen for agonism studies to match the concentrations of autoinducers used in our experiments. For antagonism studies, we used the EC95 concentration for each receptor. GFP was measured on an Envision plate reader.

[4] = test system: A549 human lung cells infected with P. aeruginosa PA14; assay: A549 human lung cell infection (propidium iodide uptake); type: cell-based; settings: wild-type and lasR mutant strains; 100 μM compound
Description: Methods. Human A549 cells were grown in CellStar tissue culture flasks. Prior to infection, the A549 cells were treated with trypsin-EDTA (CellGro), split, counted, and aliquotted into 96 well plates at 20,000 mammalian cells/well (cell counts were estimated using Trypan Blue (CellGro) exclusion). Cells were grown for 20 hr at 37° C. in DMEM (Invitrogen). Cells were washed 3× with warm PBS (Gibco). 100 μL of “master mix” was added to each well for each condition. Master mix contained 1 mL pre-warmed-PBS, 5 μL of 2 mg/mL propidium iodide (Bioprobes), 1 μL of a 100 mM inhibitor stock or DMSO, and 10 μL of OD600=2 P. aeruginosa PA14 grown in the presence of mBTL or DMSO. Infections were monitored using an EnVision plate reader every 2 hr with the RFP filter supplied by GE.

LasR = molecular target: T2, LasR (Pseudomonas aeruginosa, UniProt P25084); assay: LasR-GFP assay (rsaL-gfp reporter in recombinant E. coli); type: cell-based, P. aeruginosa
T2 construct: expressed in transfected cells; host or cells: E. coli BL21-Gold (DE3) carrying pET23b-lasR
T2 sequence (P25084 whole entry): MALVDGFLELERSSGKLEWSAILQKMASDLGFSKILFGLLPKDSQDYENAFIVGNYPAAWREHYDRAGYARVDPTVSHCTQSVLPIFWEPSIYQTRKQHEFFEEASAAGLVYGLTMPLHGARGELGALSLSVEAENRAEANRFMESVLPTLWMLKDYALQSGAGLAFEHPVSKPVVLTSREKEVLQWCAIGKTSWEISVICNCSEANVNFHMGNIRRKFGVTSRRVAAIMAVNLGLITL
Description: as §2, §3

| Molecule | pyocyanin levels in strain lacking LasR and RhlR [1] | Efficacy (%) ([2]; listed as Table 3 entry 18) | Efficacy (%) ([2]; listed as drawing 76) | inhibition of pyocyanin production (in words) [2] | effect on pyocyanin biosynthetic genes (microarray) [3] | RhlR agonism (in words) (RhlR; 20 μM, no autoinducer) | inhibition of RhlR-directed transcription in E. coli (in words) (RhlR; tested at 1 mM with C4-HSL) | killing of A549 cells by P. aeruginosa [4] | LasR agonism (in words) (LasR; 100 nM, no autoinducer) | inhibition of LasR-directed transcription in E. coli (in words) (LasR; tested at 1 mM with 3OC12-HSL) |
| --- | --- | --- | --- | --- | --- | --- | --- | --- | --- | --- |
| O=C(COc1cccc(Br)c1)Nc1ccnc(C(F)(F)F)c1 [compound 16, 4-amino-2-trifluoromethylpyridine-C6-3-bromophenoxyhybrid] | pyocyanin levels are further reduced | 99 | 99 ± 0.3 | highly effective at blocking pyocyanin production | none of the pyocyanin biosynthetic genes are impacted | – | – | – | – | – |
| chlorolactone [CL] | – | – | – | Neither CL nor CTL inhibited pyocyanin production; also recorded: no in vivo inhibition of pyocyanin production | – | does not agonize either receptor | more potent inhibitor of both LasR- and RhlR-directed transcription in E. coli than is mBTL; also recorded: inhibits LasR- and RhlR-controlled transcription | does not attenuate killing of A549 lung cells | does not agonize either receptor | more potent inhibitor of both LasR- and RhlR-directed transcription in E. coli than is mBTL; also recorded: inhibits LasR- and RhlR-controlled transcription |

From patent US9751851B2, “Molecules and compositions that inhibit gram negative bacteria and their uses” (THE TRUSTEES OF PRINCETON UNIVERSITY, priority 2013, dated 2017)
